# Test results reported in US9725446B2, “7-azaindole derivatives” (MERCK PATENT GmbH, priority 2011, dated 2017).
# Tests used:
# TGF-beta = assay: Inhibition of TGF-beta-mediated effects (elimination of TGF-beta-mediated growth inhibition, Mv1Lu cells, Crystal Violet); assay type: cell-based
# Description: In-Vitro (Enzyme) Assay for Determination of the Efficacy of the Inhibitors of the Inhibition of TGF-Beta-Mediated Effects
# As an example, the ability of the inhibitors to eliminate TGF-beta-mediated growth inhibition is tested.
# Cells of the lung epithelial cell line Mv1Lu are sown in a defined cell density in a 96-well microtitre plate and cultivated overnight under standard conditions. Next day, the medium is replaced by medium which comprises 0.5% of FCS and 1 ng/ml of TGF-beta, and the test substances are added in defined concentrations, generally in the form of dilution series with 5-fold steps. The concentration of the solvent DMSO is constant at 0.5%. After a further two days, Crystal Violet staining of the cells is carried out. After extraction of the Crystal Violet from the fixed cells, the absorption is measured spectrophotometrically at 550 nm. It can be used as a quantitative measure of the adherent cells present and thus of the cell proliferation during the culture.
# IKKε = IKKε (Homo sapiens (Human), UniProt Q14164); assay: IKKε kinase test (384-well flashplate); assay type: biochemical; settings: read-out: IC50 [IKKepsilon]
# Description: (§1) The kinase assay is performed as 384-well flashplate assay.
# 1 nM IKKε, 800 nM biotinylated IκBα(19-42) peptide (biotin-C6-C6-[…]) and 10 μM ATP (with 0.3 μCi of ^33P-ATP/well) are incubated in a total volume of 50 μl (10 mM MOPS, 10 mM magnesium acetate, 0.1 mM EGTA, 1 mM dithiothreitol, 0.02% of Brij35, 0.1% of BSA, 0.1% of BioStab, pH 7.5) with or without test substance at 30° C. for 120 min. The reaction is stopped using 25 μl of 200 mM EDTA solution, filtered off with suction after 30 min at room temperature, and the wells are washed 3 times with 100 μl of 0.9% NaCl solution. The non-specific proportion of the kinase reaction (blank) is determined using 3 μM EMD 1126352 (BX-795). Radioactivity is measured in the Topcount. IC50 values are calculated using RS1.
# A2780 = assay: Tumour cell proliferation/vitality assay (Alamar Blue), A2780; assay type: cell-based; settings: Homo sapiens; vitality assay, A2780 cells
# Description: (§2) In the present experiment description, the inhibition of tumour cell proliferation/tumour cell vitality by active compounds is described.
# (§3) The cells are sown in a suitable cell density in microtitre plates (96-well format) and the test substances are added in the form of a concentration series. After four further days of cultivation in serum-containing medium, the tumour cell proliferation/tumour cell vitality can be determined by means of an Alamar Blue test system.
# (§4) The cells are cultivated in medium. At intervals of several days, the cells are detached from the culture dishes with the aid of trypsin solution and sown in suitable dilution in fresh medium. The cells are cultivated at 37° Celsius and 10% CO2.
# (§5) A defined number of cells (for example 2000 cells) per culture/well in a volume of 180 μl of culture medium are sown in microtitre plates (96 well cell-culture plates) using a multichannel pipette. The cells are subsequently cultivated in a CO2 incubator (37° C. and 10% CO2).
# (§6) The test substances are dissolved, for example, in DMSO and subsequently employed in corresponding concentration (if desired in a dilution series) in the cell culture medium. The dilution steps can be adapted depending on the efficiency of the active compounds and the desired spread of the concentrations. Cell culture medium is added to the test substances in corresponding concentrations. The addition of the test substances to the cells can take place on the same day as the sowing of the cells. To this end, in each case 20 μl of substance solution from the predilution plate are added to the cultures/wells. The cells are cultivated for a further 4 days at 37° Celsius and 10% CO2.
# (§7) In each case, 20 μl of Alamar Blue reagent are added per well, and the microtitre plates are incubated, for example, for a further seven hours in a CO2 incubator (at 37° C. and 10% CO2). The plates are measured in a reader with a fluorescence filter at a wavelength of 540 nm. The plates can be shaken gently immediately before the measurement.
# (§8) The absorbance value of the medium control (no cells and test substances used) is subtracted from all other absorbance values. The controls (cells without test substance) are set equal to 100 percent, and all other absorbance values are set in relation thereto (for example in % of control): […]
# [1] = target: TANK binding kinase (TBK1) (Homo sapiens (Human), UniProt Q9UHD2); assay: TBK1 kinase test (384-well flashplate); assay type: biochemical
# Description: as §1
# 0.6 nM TANK binding kinase (TBK1), 800 nM biotinylated MELK-derived peptide (biotin-Ah-Ah-[…]) and 10 μM ATP (with 0.25 μCi of ^33P-ATP/well) are incubated in a total volume of 50 μl (10 mM MOPS, 10 mM magnesium acetate, 0.1 mM EGTA, 1 mM DTT, 0.02% of Brij35, 0.1% of BSA, pH 7.5) with or without test substance at 30° C. for 120 min. The reaction is stopped using 25 μl of 200 mM EDTA solution, filtered off with suction after 30 min at room temperature, and the wells are washed 3 times with 100 μl of 0.9% NaCl solution. The non-specific proportion of the kinase reaction (blank) is determined using 100 nM staurosporine. Radioactivity is measured in the Topcount. IC50 values are calculated using RS1.
# PDK1 = PDK1 (Homo sapiens (Human), UniProt O15530); assay: Test for the inhibition of PDK1 (flashplate, 33P-ATP); assay type: biochemical
# Description: The experimental batches are carried out in a flashplate system with 384 wells/microtitration plate.
# (400 nM), 4 μM ATP (with 0.2 μCi of ^33P-ATP/well) and the test substance in 50 μl of conventional experimental solution per well are incubated at 30° C. for 60 min. The test substances are employed in corresponding concentrations (if desired in a dilution series). The control is carried out without test substance. The reaction is stopped using standard methods and washed. The activity of the kinase is measured via the incorporated radioactivity in top count. In order to determine the non-specific kinase reaction (blank value), the experimental batches are carried out in the presence of 100 nM staurosporine.
# The radioactivity (decompositions per minute) of the blank value (no use of test substance in the presence of staurosporine) is subtracted from all other radioactivity values. The controls (kinase activity without test substance) are set equal to 100 percent and all other radioactivity values (after subtracting the blank value) are expressed set in relation thereto (for example in % of the control).
# HCT 116 = assay: Tumour cell proliferation/vitality assay (Alamar Blue), HCT 116; assay type: cell-based; settings: Homo sapiens; vitality assay, HCT 116 cells
# Description: as §2, §3, §4, §5, §6, §7, §8
# PDK1, sequence (O15530 51-556): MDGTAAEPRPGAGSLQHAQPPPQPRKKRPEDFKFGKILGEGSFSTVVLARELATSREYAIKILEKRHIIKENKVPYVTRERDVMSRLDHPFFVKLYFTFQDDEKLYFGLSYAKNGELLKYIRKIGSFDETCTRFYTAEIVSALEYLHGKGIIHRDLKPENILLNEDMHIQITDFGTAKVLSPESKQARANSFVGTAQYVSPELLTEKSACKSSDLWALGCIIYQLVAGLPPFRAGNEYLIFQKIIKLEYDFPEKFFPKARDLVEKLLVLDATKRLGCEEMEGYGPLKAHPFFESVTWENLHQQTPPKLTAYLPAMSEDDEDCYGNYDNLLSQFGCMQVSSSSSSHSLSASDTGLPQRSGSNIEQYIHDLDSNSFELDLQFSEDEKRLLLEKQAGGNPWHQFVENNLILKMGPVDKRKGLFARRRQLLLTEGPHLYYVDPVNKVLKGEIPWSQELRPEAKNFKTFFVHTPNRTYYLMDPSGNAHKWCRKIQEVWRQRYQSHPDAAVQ
# IKKε, sequence (Q14164 whole entry, species assumed): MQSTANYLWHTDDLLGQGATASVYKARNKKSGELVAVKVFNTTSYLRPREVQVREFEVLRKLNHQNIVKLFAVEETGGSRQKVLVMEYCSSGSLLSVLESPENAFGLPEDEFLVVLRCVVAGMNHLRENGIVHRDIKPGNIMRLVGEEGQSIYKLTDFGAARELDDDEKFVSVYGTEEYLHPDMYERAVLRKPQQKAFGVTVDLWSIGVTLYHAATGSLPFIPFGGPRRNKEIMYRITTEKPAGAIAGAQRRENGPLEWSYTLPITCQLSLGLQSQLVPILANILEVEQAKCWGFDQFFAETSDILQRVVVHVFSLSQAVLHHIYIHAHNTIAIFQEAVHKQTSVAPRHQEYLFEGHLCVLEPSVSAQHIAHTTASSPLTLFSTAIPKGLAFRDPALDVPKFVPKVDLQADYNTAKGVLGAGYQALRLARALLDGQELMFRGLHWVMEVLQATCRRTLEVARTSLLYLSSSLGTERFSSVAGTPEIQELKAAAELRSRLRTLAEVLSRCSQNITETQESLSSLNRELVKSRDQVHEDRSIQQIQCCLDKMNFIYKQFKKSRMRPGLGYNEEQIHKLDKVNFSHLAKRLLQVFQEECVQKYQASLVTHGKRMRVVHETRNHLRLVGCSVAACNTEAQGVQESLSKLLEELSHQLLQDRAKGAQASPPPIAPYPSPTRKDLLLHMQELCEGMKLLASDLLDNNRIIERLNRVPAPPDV
# TANK binding kinase (TBK1), sequence (Q9UHD2 whole entry, species assumed): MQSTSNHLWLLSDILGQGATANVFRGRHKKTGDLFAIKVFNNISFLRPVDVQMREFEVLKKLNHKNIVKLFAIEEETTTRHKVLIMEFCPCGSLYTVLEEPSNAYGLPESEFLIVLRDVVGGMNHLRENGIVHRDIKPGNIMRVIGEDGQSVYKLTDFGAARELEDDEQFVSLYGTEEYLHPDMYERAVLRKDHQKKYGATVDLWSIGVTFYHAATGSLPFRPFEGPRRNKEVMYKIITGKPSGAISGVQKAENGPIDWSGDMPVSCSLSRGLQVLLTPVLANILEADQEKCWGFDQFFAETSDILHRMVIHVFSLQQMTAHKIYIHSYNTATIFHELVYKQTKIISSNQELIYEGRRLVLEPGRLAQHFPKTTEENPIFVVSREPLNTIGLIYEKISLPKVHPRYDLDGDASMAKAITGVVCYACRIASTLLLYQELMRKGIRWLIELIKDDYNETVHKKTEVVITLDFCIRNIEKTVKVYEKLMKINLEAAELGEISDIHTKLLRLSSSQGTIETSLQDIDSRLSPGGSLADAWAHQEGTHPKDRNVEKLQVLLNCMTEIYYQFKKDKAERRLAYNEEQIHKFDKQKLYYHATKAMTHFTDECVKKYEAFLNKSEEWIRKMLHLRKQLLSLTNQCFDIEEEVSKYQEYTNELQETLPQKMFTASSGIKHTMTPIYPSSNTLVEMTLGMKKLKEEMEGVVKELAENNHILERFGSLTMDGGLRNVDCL
Structure (SMILES),IC50 (IKKε) [nM],IC50 (A2780) [nM],IC50 [1] [nM],IC50 (PDK1) [nM],IC50 (HCT 116) [nM],IC50 (TGF-beta) [nM]
"Cc1[nH]c2ncccc2c1-c1cccc2cnccc12 [Compound A15, 5-(2-methyl-1H-pyrrolo[2,3-b]pyridin-3-yl)isoquinoline]",–,–,–,–,–,0.5 to 1000
"Cn1cc(-c2cnc3[nH]cc(-c4cn(S(=O)(=O)c5ccccc5)c5cnccc45)c3c2)cn1 [Compound A14, 1-benzenesulfonyl-3-[5-(1-methyl-1H-pyrazol-4-yl)-1H-pyrrolo[2,3-b]pyridin-3-yl]-1H-pyrrolo[2,3-c]pyridine]",0.5 to 1000,10 to 1000,0.5 to 1000,1000 to 10000,–,–
"Cn1cc(-c2cnc3[nH]cc(-c4cn(C)c5cnccc45)c3c2)cn1 [Compound A33, 1-methyl-3-[5-(1-methyl-1H-pyrazol-4-yl)-1H-pyrrolo[2,3-b]-pyridin-3-yl]-1H-pyrrolo[2,3-c]pyridine]",0.5 to 1000,–,0.5 to 1000,0.5 to 1000,–,0.5 to 1000
"c1cnc2[nH]cc(-c3nccc4cnccc34)c2c1 [Compound A16, 1-(1H-pyrrolo[2,3-b]pyridin-3-yl)-2,6-naphthyridine]",–,–,–,–,–,0.5 to 1000
"Cn1cc(-c2cnc3[nH]cc(-c4c[nH]c5cnccc45)c3c2)cn1 [Compound A20, 3-[5-(1-methyl-1H-pyrazol-4-yl)-1H-pyrrolo[2,3-b]pyridin-3-yl]-1H-pyrrolo[2,3-c]pyridine]",0.5 to 1000,10 to 1000,0.5 to 1000,0.5 to 1000,10 to 1000,0.5 to 1000
"Cc1[nH]c2ncccc2c1-c1nccc2cnccc12 [Compound A28, 1-(2-methyl-1H-pyrrolo[2,3-b]pyridin-3-yl)-2,6-naphthyridine]",–,–,–,–,–,0.5 to 1000
"Cn1cc(-c2c[nH]c3ncccc23)c2ccncc21 [Compound A19, 1-methyl-3-(1H-pyrrolo[2,3-b]pyridin-3-yl)-1H-pyrrolo[2,3-c]pyridine]",–,–,–,–,–,1000 to 10000
"Cn1cc(-c2cccc3cnccc23)c2cccnc21 [Compound A17, 5-(1-methyl-1H-pyrrolo[2,3-b]pyridin-3-yl)isoquinoline]",–,–,–,–,–,0.5 to 1000
"c1cnc2[nH]cc(-c3cnc4ncccn34)c2c1 [Compound A3, 3-(1H-pyrrolo[2,3-b]pyridin-3-yl)imidazo[1,2-a]pyrimidine]",–,1000 to 10000,–,–,1000 to 10000,–
"Cn1cc(-c2c[nH]c3cnccc23)c2cccnc21 [Compound A29, 3-(1-methyl-1H-pyrrolo[2,3-b]pyridin-3-yl)-1H-pyrrolo[2,3-c]-pyridine]",–,1000 to 10000,–,–,1000 to 10000,–

# More lines, main results first:
IC50 (IKKε) [nM],IC50 (A2780) [nM],IC50 [1] [nM],IC50 (PDK1) [nM],IC50 (HCT 116) [nM],Structure (SMILES),IC50 (TGF-beta) [nM]
–,1000 to 10000,–,–,1000 to 10000,"c1ccc2c(-c3c[nH]c4ncccc34)cnnc2c1 [Compound A4, 4-(1H-pyrrolo[2,3-b]pyridin-3-yl)cinnoline]",1000 to 10000
–,10 to 1000,–,–,10 to 1000,"c1ccc(-c2cc3nccc(-c4c[nH]c5ncccc45)c3o2)cc1 [Compound A21, 2-phenyl-7-(1H-pyrrolo[2,3-b]pyridin-3-yl)furo[3,2-b]pyridine]",–
1000 to 10000,–,0.5 to 1000,1000 to 10000,–,"c1cnc2[nH]cc(-c3c[nH]c4cnccc34)c2c1 [Compound A18, 3-(1H-pyrrolo[2,3-b]pyridin-3-yl)-1H-pyrrolo[2,3-c]pyridine]",1000 to 10000
–,1000 to 10000,–,–,1000 to 10000,"Nc1cc(-c2c[nH]c3ncccc23)c2ccccc2n1 [Compound A1, 4-(1H-pyrrolo[2,3-b]pyridin-3-yl)quinolin-2-ylamine]",–
–,1000 to 10000,1000 to 10000,–,1000 to 10000,"Nc1ncc(-c2c[nH]c3ncccc23)c2ccncc12 [Compound A24, 4-(1H-pyrrolo[2,3-b]pyridin-3-yl)-2,7-naphthyridin-1-ylamine]",0.5 to 1000
–,–,–,–,1000 to 10000,"Nc1nccc2c(-c3c[nH]c4ncccc34)nccc12 [Compound A32, 5-(1H-pyrrolo[2,3-b]pyridin-3-yl)-2,6-naphthyridin-1-ylamine]",0.5 to 1000
1000 to 10000,1000 to 10000,1000 to 10000,–,1000 to 10000,"c1cc(-c2c[nH]c3ncccc23)c2ccncc2c1 [Compound A7, 5-(1H-pyrrolo[2,3-b]pyridin-3-yl)isoquinoline]",0.5 to 1000
–,1000 to 10000,–,–,1000 to 10000,"Cc1[nH]c2ncccc2c1-c1nccc2c(N)nccc12 [Compound A31, 5-(2-methyl-1H-pyrrolo[2,3-b]pyridin-3-yl)-2,6-naphthyridin-1-ylamine]",0.5 to 1000
–,1000 to 10000,–,–,1000 to 10000,"Nc1nccc2c(-c3c[nH]c4ncccc34)cccc12 [Compound A11, 5-(1H-pyrrolo[2,3-b]pyridin-3-yl)isoquinolin-1-ylamine]",1000 to 10000
